Values quoted from earlier work as cited in US20050101565A1, “Pharmaceutical compositions and methods for treating, preventing, and managing cholesterol, dyslipidemia, and related disorders” (Esperion Therapeutics, Inc., priority 2002, published 2005).

Experiments:
[1] = patients on metformin therapy
[2] = many patients, metformin therapy

Structure (SMILES): CN(C)C(=N)N=C(N)N [metformin]
- incidence of lactic acidosis [1]: 3 cases per 100,000 patient/year of therapy
- weight reduction [2]: 5-10%
